Here are results for seven compounds from ChEMBL document CHEMBL1201862, “PubChem BioAssay data set” (2004).

Each structure is given as a SMILES string.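 These data come from cells grown in 96-well plates and exposed to compound for 48 hours at five concentrations. The concentration for 50% growth inhibition is given as GI50.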 Activity calls are given as the source filed them. Cut-off read from the data, not from the text of the source: active = GI50 up to about 1.1 µM and inactive = higher.

Usually GI50 stands for the concentration at which growth is held to half of that of the control.

Test systems include 786-0; ACHN; CAKI-1; HL-60; IGROV-1; MDA-MB-231; Malme-3M; NCI-H226; NCI-H23; NCI-H522; NCI/ADR-RES; OVCAR-3; OVCAR-4; OVCAR-8; PC-3; SK-MEL-5; SR; T47D; UACC-257; UACC-62.
What all share (assay): DTP human tumour cell line panel, 48 h

`CSc1cc(-c2ccccn2)nc(-c2ccccn2)c1`: the GI50 is 0.0546 µM (active) in the assay on 786-0; 0.0334 µM (active) in the assay on ACHN; 0.065 µM (active) in the assay with CAKI-1; 0.0492 µM (active) with HL-60; 0.102 µM (active) in the assay on IGROV-1; 0.494 µM (active) with MDA-MB-231. Also, the 50% growth inhibitory concentration (GI50) with Malme-3M was 0.102 µM (active); with NCI-H226 it was 0.0395 µM (active); in the assay with NCI-H23 it was 0.398 µM (active); in the assay with NCI-H522 it was 0.385 µM (active); in the assay with NCI/ADR-RES, 0.0944 µM (active); with OVCAR-3 it was 0.0279 µM (active). Moreover, the 50% growth inhibitory concentration (GI50) was 0.0828 µM (active) with OVCAR-4; 0.0845 µM (active) with OVCAR-8; 0.092 µM (active) with PC-3; 0.126 µM (active) in the assay on SK-MEL-5; 0.0405 µM (active) with SR; 0.346 µM (active) with T47D. For the same compound, the figures for the GI50 in the assay with UACC-257 and in the assay on UACC-62 were 0.481 µM (active) and 0.176 µM (active), respectively.
Regarding `N#Cc1nc(-c2cccc(-c3nc(C#N)c(N)o3)n2)oc1N`, the GI50 is > 100 µM (inactive) in the assay on 786-0; > 100 µM (inactive) in the assay with ACHN; > 100 µM (inactive) in the assay with CAKI-1; 64.7 µM (inactive) in the assay with HL-60; > 100 µM (inactive) with IGROV-1; > 100 µM (inactive) in the assay with MDA-MB-231. For the same compound, the GI50 in the assay on Malme-3M, with NCI-H226, with NCI-H23, in the assay with NCI-H522, with NCI/ADR-RES and with OVCAR-3 was > 100 µM (inactive) throughout. For the same compound, the GI50 with OVCAR-4, in the assay on OVCAR-8, with PC-3, in the assay on SK-MEL-5, with SR and in the assay on T47D was > 100 µM (inactive) each time. Besides, the GI50 with UACC-257 and with UACC-62 was > 100 µM (inactive) each time.
For the compound `O=C(O)[C@@]1(Cc2ccc(O)cc2)C[C@@H]2Cc3ccccc3N2N1`, the GI50 in the assay with 786-0, with ACHN, with CAKI-1, with HL-60, with IGROV-1 and in the assay on MDA-MB-231 was > 100 µM (inactive) each time. For the same compound, the GI50 in the assay with Malme-3M, in the assay with NCI-H226, in the assay with NCI-H23, with NCI-H522, with NCI/ADR-RES and with OVCAR-3 was > 100 µM (inactive) each time. For the same compound, the GI50 with OVCAR-4, in the assay with OVCAR-8, in the assay with PC-3, in the assay on SK-MEL-5, in the assay on SR and in the assay with T47D was > 100 µM (inactive) in each case. Besides, the GI50 with UACC-257 and in the assay on UACC-62 was > 100 µM (inactive) in each case.
In the case of `CCOC(=O)c1cc2c(OC)cc(OC)cc2oc1=O`, the GI50 was 52.5 µM (inactive) with 786-0; > 100 µM (inactive) in the assay on ACHN; 55.3 µM (inactive) with CAKI-1; > 100 µM (inactive) with HL-60; > 100 µM (inactive) in the assay on IGROV-1; 35.9 µM (inactive) in the assay on MDA-MB-231. The GI50 with Malme-3M is > 100 µM (inactive); in the assay on NCI-H226, > 100 µM (inactive); in the assay on NCI-H23, 63.8 µM (inactive); in the assay on NCI-H522 it was 52.1 µM (inactive); in the assay on NCI/ADR-RES it was > 100 µM (inactive); in the assay with OVCAR-3, > 100 µM (inactive). Moreover, the GI50 with OVCAR-4, with OVCAR-8, in the assay with PC-3, in the assay with SK-MEL-5, with SR and in the assay on T47D was > 100 µM (inactive) in each case. Also, the GI50 with UACC-257 and in the assay with UACC-62 was > 100 µM (inactive) each time.
Consider `C[C@]12CC[C@H]3[C@@H](CC[C@]4(O)C[C@@H](O)CC[C@]34CO)[C@@]1(O)CC[C@@H]2C1=CC(=O)OC1` [STROPHANTHIDOL], for which the GI50 is 1.42 µM (inactive) in the assay with 786-0; 0.467 µM (active) in the assay on ACHN; 0.494 µM (active) with CAKI-1; 1.64 µM (inactive) in the assay with HL-60; 2.79 µM (inactive) with IGROV-1; 8.45 µM (inactive) in the assay with MDA-MB-231. For the same compound, the GI50 was 2.21 µM (inactive) in the assay on Malme-3M; 4.03 µM (inactive) in the assay with NCI-H226; 1.48 µM (inactive) in the assay with NCI-H23; 0.447 µM (active) in the assay with NCI-H522; 1.51 µM (inactive) in the assay on NCI/ADR-RES; 0.993 µM (active) in the assay with OVCAR-3. The GI50 was 1.12 µM (inactive) in the assay on OVCAR-4; 1.77 µM (inactive) with OVCAR-8; 2 µM (inactive) in the assay on PC-3; 0.979 µM (active) in the assay on SK-MEL-5; 0.861 µM (active) in the assay with SR; 3.3 µM (inactive) with T47D. For the same compound, the results for the GI50 with UACC-257 and in the assay with UACC-62 were 2.99 µM (inactive) and 3.52 µM (inactive), respectively.
As for `N#Cc1nc(-c2cccs2)oc1N`, the GI50 is > 100 µM (inactive) in the assay with 786-0; > 100 µM (inactive) with ACHN; 3.09 µM (inactive) in the assay with CAKI-1; 56.8 µM (inactive) in the assay on HL-60; > 100 µM (inactive) in the assay with IGROV-1; 51.3 µM (inactive) in the assay on MDA-MB-231. In addition, the GI50 in the assay on Malme-3M is > 100 µM (inactive); in the assay with NCI-H226, > 100 µM (inactive); with NCI-H23, > 100 µM (inactive); in the assay on NCI-H522, 18.5 µM (inactive); with NCI/ADR-RES, > 100 µM (inactive); in the assay with OVCAR-3, > 100 µM (inactive). The GI50 in the assay with OVCAR-4, in the assay on OVCAR-8, in the assay on PC-3, in the assay on SK-MEL-5, with SR and in the assay on T47D was > 100 µM (inactive) throughout. Moreover, the GI50 with UACC-257 and in the assay with UACC-62 was > 100 µM (inactive) each time.
As to `O=C(O)C1C2C=CC(O2)C1C(=O)Nc1ncccn1` (stereo not given), the GI50 with 786-0, in the assay on ACHN, in the assay with CAKI-1, with HL-60, in the assay on IGROV-1 and in the assay with MDA-MB-231 was > 100 µM (inactive) throughout. In addition, the GI50 in the assay on Malme-3M, in the assay on NCI-H226, in the assay on NCI-H23, with NCI-H522, in the assay on NCI/ADR-RES and with OVCAR-3 was > 100 µM (inactive) each time. Also, the GI50 in the assay with OVCAR-4, in the assay with OVCAR-8, in the assay on PC-3, in the assay with SK-MEL-5, with SR and with T47D was > 100 µM (inactive) throughout. The GI50 in the assay on UACC-257 and in the assay with UACC-62 was > 100 µM (inactive) in each case.
